Measured values: US9663508B2, “Biaryl acyl-sulfonamide compounds as sodium channel inhibitors” (AMGEN INC., priority 2013, dated 2017)

molecular target: human Nav1.7 (Homo sapiens (Human), UniProt Q15858); assay: Nav 1.7 in vitro PatchXpress (PX) assay; format: cell-based; settings: in-vitro Nav 1.7 PX data
Sequence (Q15858 whole entry): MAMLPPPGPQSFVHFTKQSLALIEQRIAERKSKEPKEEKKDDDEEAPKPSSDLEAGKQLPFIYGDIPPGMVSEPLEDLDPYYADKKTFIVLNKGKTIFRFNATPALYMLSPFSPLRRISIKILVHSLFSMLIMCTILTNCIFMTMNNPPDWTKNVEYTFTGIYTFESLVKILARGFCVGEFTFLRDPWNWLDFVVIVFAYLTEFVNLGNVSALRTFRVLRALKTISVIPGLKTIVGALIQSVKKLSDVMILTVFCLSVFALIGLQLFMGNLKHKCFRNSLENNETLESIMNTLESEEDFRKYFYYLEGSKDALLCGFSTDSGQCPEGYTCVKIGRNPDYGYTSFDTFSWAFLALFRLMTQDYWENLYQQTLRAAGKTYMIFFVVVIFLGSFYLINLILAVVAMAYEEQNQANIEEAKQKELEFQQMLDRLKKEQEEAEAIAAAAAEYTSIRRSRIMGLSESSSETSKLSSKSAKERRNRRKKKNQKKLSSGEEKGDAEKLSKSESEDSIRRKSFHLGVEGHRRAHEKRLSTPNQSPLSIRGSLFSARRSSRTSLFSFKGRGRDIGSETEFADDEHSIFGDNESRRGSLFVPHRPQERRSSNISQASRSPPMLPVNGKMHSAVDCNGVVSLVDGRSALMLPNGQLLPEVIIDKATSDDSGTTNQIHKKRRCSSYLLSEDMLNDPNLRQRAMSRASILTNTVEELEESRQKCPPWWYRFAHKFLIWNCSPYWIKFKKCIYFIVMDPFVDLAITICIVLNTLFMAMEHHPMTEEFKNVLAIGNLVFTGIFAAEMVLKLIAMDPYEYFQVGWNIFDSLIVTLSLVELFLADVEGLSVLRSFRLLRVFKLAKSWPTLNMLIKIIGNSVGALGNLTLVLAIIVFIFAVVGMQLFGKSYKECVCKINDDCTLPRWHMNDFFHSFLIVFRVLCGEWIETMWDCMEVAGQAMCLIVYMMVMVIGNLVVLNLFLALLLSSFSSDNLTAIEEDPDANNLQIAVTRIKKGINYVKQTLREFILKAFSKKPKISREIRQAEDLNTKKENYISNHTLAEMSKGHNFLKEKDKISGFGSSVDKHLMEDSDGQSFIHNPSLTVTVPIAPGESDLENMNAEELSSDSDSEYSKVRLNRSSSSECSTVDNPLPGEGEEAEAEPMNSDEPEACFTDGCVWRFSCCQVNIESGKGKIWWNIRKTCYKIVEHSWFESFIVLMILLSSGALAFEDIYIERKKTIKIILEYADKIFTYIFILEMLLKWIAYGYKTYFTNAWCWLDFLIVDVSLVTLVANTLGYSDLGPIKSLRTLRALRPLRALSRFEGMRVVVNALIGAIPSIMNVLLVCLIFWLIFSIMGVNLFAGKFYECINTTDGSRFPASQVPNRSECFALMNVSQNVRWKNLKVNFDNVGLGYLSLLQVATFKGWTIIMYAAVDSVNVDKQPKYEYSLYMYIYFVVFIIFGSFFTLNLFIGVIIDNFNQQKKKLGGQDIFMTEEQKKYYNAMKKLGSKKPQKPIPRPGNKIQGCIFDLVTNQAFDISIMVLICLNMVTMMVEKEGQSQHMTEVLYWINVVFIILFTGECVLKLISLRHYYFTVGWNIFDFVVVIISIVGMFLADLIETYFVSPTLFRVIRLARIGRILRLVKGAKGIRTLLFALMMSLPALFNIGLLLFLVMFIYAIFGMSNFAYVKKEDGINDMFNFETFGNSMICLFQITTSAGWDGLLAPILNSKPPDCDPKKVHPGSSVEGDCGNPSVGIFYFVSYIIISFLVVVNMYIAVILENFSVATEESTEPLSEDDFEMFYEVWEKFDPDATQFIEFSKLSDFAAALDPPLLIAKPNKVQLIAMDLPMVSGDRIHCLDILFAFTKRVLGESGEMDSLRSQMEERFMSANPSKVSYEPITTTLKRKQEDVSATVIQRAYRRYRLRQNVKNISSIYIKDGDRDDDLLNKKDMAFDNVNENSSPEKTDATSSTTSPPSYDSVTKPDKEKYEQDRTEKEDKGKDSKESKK

| Structure (SMILES) | IC50 |
| --- | --- |
| COc1cc(C(=O)NS(C)(=O)=O)c(F)cc1-c1cnc(Oc2cc(Cl)c(Cl)cc2Cl)c(Cl)c1 [Example 739, 4-(5-chloro-6-(2,4,5-trichlorophenoxy)-3-pyridinyl)-2-fluoro-5-methoxy-N-(methylsulfonyl)benzamide] | 51 nM |
| COc1cc(C(=O)NS(C)(=O)=O)c(F)cc1-c1cnc(Oc2cc(F)ccc2C)c(Cl)c1 [Example 743, 4-(5-chloro-6-(5-fluoro-2-methylphenoxy)-3-pyridinyl)-2-fluoro-5-methoxy-N-(methylsulfonyl)benzamide] | 96.2 nM |
| COc1cc(C(=O)NS(C)(=O)=O)c(F)cc1-c1cnc(Oc2cccc(Cl)c2F)c(Cl)c1 [Example 745, 4-(5-chloro-6-(3-chloro-2-fluorophenoxy)-3-pyridinyl)-2-fluoro-5-methoxy-N-(methylsulfonyl)benzamide] | 72.5 nM |
| COc1cc(C(=O)NS(C)(=O)=O)c(F)cc1-c1cnc(Oc2ccc(C)c(F)c2F)c(Cl)c1 [Example 746, 4-(5-chloro-6-(2,3-difluoro-4-methylphenoxy)-3-pyridinyl)-2-fluoro-5-methoxy-N-(methylsulfonyl)benzamide] | 62.8 nM |
| COc1cc(C(=O)NS(C)(=O)=O)c(F)cc1-c1cnc(Oc2c(C)cccc2Cl)c(Cl)c1 [Example 748, 4-(5-chloro-6-(2-chloro-6-methylphenoxy)-3-pyridinyl)-2-fluoro-5-methoxy-N-(methylsulfonyl)benzamide] | 76.4 nM |
| COc1cc(C(=O)NS(C)(=O)=O)c(F)cc1-c1cnc(O[C@H](C)c2ccccc2)c(Cl)c1 [Example 749, 4-(5-chloro-6-((1R)-1-phenylethoxy)-3-pyridinyl)-2-fluoro-5-methoxy-N-(methylsulfonyl)benzamide] | 93.6 nM |
| COc1cc(C(=O)NS(C)(=O)=O)c(F)cc1-c1cnc(OCc2ccc(Cl)cc2)c(Cl)c1 [Example 750, 4-(5-chloro-6-((4-chlorobenzyl)oxy)-3-pyridinyl)-2-fluoro-5-methoxy-N-(methylsulfonyl)benzamide] | 74.7 nM |
| COc1cc(C(=O)NS(C)(=O)=O)c(F)cc1-c1cnc(Oc2cc(C)ccc2Cl)c(Cl)c1 [Example 752, 4-(5-chloro-6-(2-chloro-5-methylphenoxy)-3-pyridinyl)-2-fluoro-5-methoxy-N-(methylsulfonyl)benzamide] | 42.1 nM |
| COc1cc(C(=O)NS(C)(=O)=O)c(F)cc1-c1cnc(O[C@H](C)Cc2ccccc2)c(Cl)c1 [Example 756, 4-(5-chloro-6-((1R)-1-methyl-2-phenylethoxy)-3-pyridinyl)-2-fluoro-5-methoxy-N-(methylsulfonyl)benzamide] | 55.3 nM |
| COc1cc(C(=O)NS(C)(=O)=O)c(F)cc1-c1cnc(Oc2ccc(F)c3c2CCC3)c(Cl)c1 [Example 757, 4-(5-chloro-6-((7-fluoro-2,3-dihydro-1H-inden-4-yl)oxy)-3-pyridinyl)-2-fluoro-5-methoxy-N-(methylsulfonyl)benzamide] | 47.7 nM |
| COc1cc(C(=O)NS(C)(=O)=O)c(F)cc1-c1cnc(O[C@@H](C)Cc2ccccc2)c(Cl)c1 [Example 758, 4-(5-chloro-6-((1S)-1-methyl-2-phenylethoxy)-3-pyridinyl)-2-fluoro-5-methoxy-N-(methylsulfonyl)benzamide] | 83.8 nM |
| COc1cc(C(=O)NS(C)(=O)=O)c(F)cc1-c1cnc(Oc2cccc(C)c2Cl)c(Cl)c1 [Example 760, 4-(5-chloro-6-(2-chloro-3-methylphenoxy)-3-pyridinyl)-2-fluoro-5-methoxy-N-(methylsulfonyl)benzamide] | 62.4 nM |
| COc1cc(C(=O)NS(C)(=O)=O)c(F)cc1-c1cnc(O[C@H](C)c2ccc(F)cc2Cl)c(Cl)c1 [Example 761, 4-(5-chloro-6-((1R)-1-(2-chloro-4-fluorophenyl)ethoxy)-3-pyridinyl)-2-fluoro-5-methoxy-N-(methylsulfonyl)benzamide] | 82.1 nM |
| COc1cc(C(=O)NS(C)(=O)=O)c(F)cc1-c1cnc(Oc2c(Cl)ccc(C)c2F)c(Cl)c1 [Example 762, 4-(5-chloro-6-(6-chloro-2-fluoro-3-methylphenoxy)-3-pyridinyl)-2-fluoro-5-methoxy-N-(methylsulfonyl)benzamide] | 75.2 nM |
| COc1cc(C(=O)NS(C)(=O)=O)c(F)cc1-c1cnc(Oc2c(Cl)cccc2Cl)c(Cl)c1 [Example 764, 4-(5-chloro-6-(2,6-dichlorophenoxy)-3-pyridinyl)-2-fluoro-5-methoxy-N-(methylsulfonyl)benzamide] | 36.7 nM |
| COc1cc(C(=O)NS(C)(=O)=O)c(F)cc1-c1cnc(Oc2cccc(Cl)c2)c(Cl)c1 [Example 765, 4-(5-chloro-6-(3-chlorophenoxy)-3-pyridinyl)-2-fluoro-5-methoxy-N-(methylsulfonyl)benzamide] | 84.9 nM |
| CC[C@H](Oc1ncc(-c2cc(F)c(C(=O)NS(C)(=O)=O)cc2OC)cc1Cl)C(F)(F)F [Example 768, 4-(5-chloro-6-(((1S)-1-(trifluoromethyl)propyl)oxy)-3-pyridinyl)-2-fluoro-5-methoxy-N-(methylsulfonyl)benzamide] | 95.5 nM |
| COc1cc(C(=O)NS(C)(=O)=O)c(F)cc1-c1cnc(O[C@@H]2CC[C@@H]2C)c(Cl)c1 [Example 770, 4-(5-chloro-6-(((1R,2S)-2-methylcyclobutyl)oxy)-3-pyridinyl)-2-fluoro-5-methoxy-N-(methylsulfonyl)benzamide] | 110 nM |
| COc1cc(C(=O)NS(C)(=O)=O)c(F)cc1-c1cnc(N[C@H]2CC23CCCC3)c(Cl)c1 [Example 771, 4-(5-chloro-6-((1S)-spiro[2.4]hept-1-ylamino)-3-pyridinyl)-2-fluoro-5-methoxy-N-(methylsulfonyl)benzamide] | 86.8 nM |
| COc1cc(C(=O)NS(=O)(=O)N2CCC2)ccc1-c1cnc(Oc2cc(Cl)cc(Cl)c2)c(Cl)c1 [Example 773, N-(1-azetidinylsulfonyl)-4-(5-chloro-6-(3,5-dichlorophenoxy)-3-pyridinyl)-3-methoxybenzamide] | 114 nM |
| Cc1cc(Cl)cc(Cl)c1Oc1ncc(-c2ccc(C(=O)NS(C)(=O)=O)cc2Cl)cc1Cl [Example 776, 3-chloro-4-(5-chloro-6-(2,4-dichloro-6-methylphenoxy)-3-pyridinyl)-N-(methylsulfonyl)benzamide] | 34.5 nM |
| CS(=O)(=O)NC(=O)c1ccc(-c2cnc(Oc3cc(Cl)cc(Cl)c3)c(Cl)c2)c(Cl)c1 [Example 777, 3-chloro-4-(5-chloro-6-(3,5-dichlorophenoxy)-3-pyridinyl)-N-(methylsulfonyl)benzamide] | 40 nM |
| CS(=O)(=O)NC(=O)c1ccc(-c2cnc(Oc3c(F)ccc(F)c3F)c(Cl)c2)c(Cl)c1 [Example 778, 3-chloro-4-(5-chloro-6-(2,3,6-trifluorophenoxy)-3-pyridinyl)-N-(methylsulfonyl)benzamide] | 73.4 nM |

Further lines, results first:

| IC50 | Structure (SMILES) |
| --- | --- |
| 87 nM | COc1cc(C(=O)NS(C)(=O)=O)c(F)cc1-c1cnc(Oc2cc(F)cc(F)c2)c(Cl)c1 [Example 740, 4-(5-chloro-6-(3,5-difluorophenoxy)-3-pyridinyl)-2-fluoro-5-methoxy-N-(methylsulfonyl)benzamide] |
| 56 nM | COc1cc(C(=O)NS(C)(=O)=O)c(F)cc1-c1cnc(Oc2ccc(F)c(Cl)c2)c(Cl)c1 [Example 741, 4-(5-chloro-6-(3-chloro-4-fluorophenoxy)-3-pyridinyl)-2-fluoro-5-methoxy-N-(methylsulfonyl)benzamide] |
| 94 nM | COc1cc(C(=O)NS(C)(=O)=O)c(F)cc1-c1cnc(Oc2ccc(F)cc2F)c(Cl)c1 [Example 742, 4-(5-chloro-6-(2,4-difluorophenoxy)-3-pyridinyl)-2-fluoro-5-methoxy-N-(methylsulfonyl)benzamide] |
| 67.8 nM | COc1cc(C(=O)NS(C)(=O)=O)c(F)cc1-c1cnc(Oc2c(F)ccc(Cl)c2F)c(Cl)c1 [Example 744, 4-(5-chloro-6-(3-chloro-2,6-difluorophenoxy)-3-pyridinyl)-2-fluoro-5-methoxy-N-(methylsulfonyl)benzamide] |
| 83.6 nM | COc1cc(C(=O)NS(C)(=O)=O)c(F)cc1-c1cnc(Oc2cc(Cl)ccc2F)c(Cl)c1 [Example 747, 4-(5-chloro-6-(5-chloro-2-fluorophenoxy)-3-pyridinyl)-2-fluoro-5-methoxy-N-(methylsulfonyl)benzamide] |
| 98.3 nM | COc1cc(C(=O)NS(C)(=O)=O)c(F)cc1-c1cnc(Oc2ccc(C)c(Cl)c2)c(Cl)c1 [Example 751, 4-(5-chloro-6-(3-chloro-4-methylphenoxy)-3-pyridinyl)-2-fluoro-5-methoxy-N-(methylsulfonyl)benzamide] |
| 36.9 nM | COc1cc(C(=O)NS(C)(=O)=O)c(F)cc1-c1cnc(Oc2ccc(Cl)cc2F)c(Cl)c1 [Example 753, 4-(5-chloro-6-(4-chloro-2-fluorophenoxy)-3-pyridinyl)-2-fluoro-5-methoxy-N-(methylsulfonyl)benzamide] |
| 92.2 nM | COc1cc(C(=O)NS(C)(=O)=O)c(F)cc1-c1cnc(Oc2ccc(F)c(C)c2)c(Cl)c1 [Example 754, 4-(5-chloro-6-(4-fluoro-3-methylphenoxy)-3-pyridinyl)-2-fluoro-5-methoxy-N-(methylsulfonyl)benzamide] |
| 51.5 nM | COc1cc(C(=O)NS(C)(=O)=O)c(F)cc1-c1cnc(Oc2ccc(Cl)c(Cl)c2)c(Cl)c1 [Example 755, 4-(5-chloro-6-(3,4-dichlorophenoxy)-3-pyridinyl)-2-fluoro-5-methoxy-N-(methylsulfonyl)benzamide] |
| 95.4 nM | COc1cc(C(=O)NS(C)(=O)=O)c(F)cc1-c1cnc(Oc2c(F)ccc(C)c2F)c(Cl)c1 [Example 759, 4-(5-chloro-6-(2,6-difluoro-3-methylphenoxy)-3-pyridinyl)-2-fluoro-5-methoxy-N-(methylsulfonyl)benzamide] |
| 47.1 nM | COc1cc(C(=O)NS(C)(=O)=O)c(F)cc1-c1cnc(Oc2cc(F)c(Cl)c(F)c2)c(Cl)c1 [Example 763, 4-(5-chloro-6-(4-chloro-3,5-difluorophenoxy)-3-pyridinyl)-2-fluoro-5-methoxy-N-(methylsulfonyl)benzamide] |
| 96.3 nM | COc1cc(C(=O)NS(C)(=O)=O)c(F)cc1-c1cnc(Oc2c(F)ccc(F)c2F)c(Cl)c1 [Example 766, 4-(5-chloro-6-(2,3,6-trifluorophenoxy)-3-pyridinyl)-2-fluoro-5-methoxy-N-(methylsulfonyl)benzamide] |
